Consider twelve compounds from patent US10399940B2, “Substituted pyrrolidines and methods of use” (AbbVie S.à.r.l., priority 2016, dated 2019).

Read-outs that look alike come from different tables or passages of the source. Where only a bound is given, the exact number is not on record here.

This assay deals with T1, F508delCFTR (Homo sapiens, UniProt P13569, DEL508-508).
T1 construct: expressed in transfected cells; host or cells: CFBE41o- (human lung derived epithelial cell line), doxycycline-inducible expression
T1 sequence (P13569 with tags, fused parts or gaps DEL508-508): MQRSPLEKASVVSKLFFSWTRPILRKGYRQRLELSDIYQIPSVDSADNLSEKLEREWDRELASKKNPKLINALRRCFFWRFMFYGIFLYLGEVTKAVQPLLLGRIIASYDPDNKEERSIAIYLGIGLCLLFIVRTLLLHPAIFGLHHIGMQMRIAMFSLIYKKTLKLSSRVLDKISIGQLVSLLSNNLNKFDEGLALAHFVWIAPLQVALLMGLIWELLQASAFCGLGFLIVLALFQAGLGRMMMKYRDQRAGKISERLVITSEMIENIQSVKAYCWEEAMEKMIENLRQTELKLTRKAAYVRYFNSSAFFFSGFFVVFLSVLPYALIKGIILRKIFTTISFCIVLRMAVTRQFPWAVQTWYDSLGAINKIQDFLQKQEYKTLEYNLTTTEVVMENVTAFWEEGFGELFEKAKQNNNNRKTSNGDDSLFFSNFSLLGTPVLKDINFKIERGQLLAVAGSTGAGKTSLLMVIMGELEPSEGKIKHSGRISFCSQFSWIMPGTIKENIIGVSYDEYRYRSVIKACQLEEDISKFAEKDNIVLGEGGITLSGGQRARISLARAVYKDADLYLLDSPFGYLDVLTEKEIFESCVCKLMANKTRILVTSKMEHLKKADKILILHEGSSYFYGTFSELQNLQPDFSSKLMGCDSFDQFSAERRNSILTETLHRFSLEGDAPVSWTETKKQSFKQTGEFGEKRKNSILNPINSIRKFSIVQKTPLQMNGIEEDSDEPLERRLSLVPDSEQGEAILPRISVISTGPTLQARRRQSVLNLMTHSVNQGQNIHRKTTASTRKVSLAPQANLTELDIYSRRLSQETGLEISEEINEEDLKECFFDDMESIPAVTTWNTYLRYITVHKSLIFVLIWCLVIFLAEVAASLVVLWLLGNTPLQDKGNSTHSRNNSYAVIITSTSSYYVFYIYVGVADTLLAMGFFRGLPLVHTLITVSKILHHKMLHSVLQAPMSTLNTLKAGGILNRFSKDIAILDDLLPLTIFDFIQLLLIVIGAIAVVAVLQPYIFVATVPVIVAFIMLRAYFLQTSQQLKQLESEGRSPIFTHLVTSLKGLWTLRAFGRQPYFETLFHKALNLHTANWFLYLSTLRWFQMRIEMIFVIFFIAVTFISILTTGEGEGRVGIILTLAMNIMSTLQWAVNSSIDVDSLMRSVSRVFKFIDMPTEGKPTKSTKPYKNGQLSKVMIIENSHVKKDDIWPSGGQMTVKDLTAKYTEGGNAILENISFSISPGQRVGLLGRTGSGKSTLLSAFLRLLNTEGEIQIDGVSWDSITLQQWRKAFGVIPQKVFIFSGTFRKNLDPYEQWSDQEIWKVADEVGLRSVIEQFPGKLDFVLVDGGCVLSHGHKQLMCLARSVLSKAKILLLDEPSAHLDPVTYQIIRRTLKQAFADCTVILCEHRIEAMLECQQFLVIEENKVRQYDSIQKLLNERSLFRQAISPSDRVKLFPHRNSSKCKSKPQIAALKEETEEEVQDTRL
Briefly: Cell Surface Expression-Horse Radish Peroxidase (CSE-HRP) assay. It counts as cell-based. Particulars: CFBE41o-F508delCFTR-HRP cells; for Maximum % activity (with co-corrector): with co-corrector (2 μM); for Maximum % activity (with co-corrector) / Maximum % activity (without co-corrector): normalized to on-plate positive control, highest concentration 20 μM. In a few lines:
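CFBE41o- cells expressed F508delCFTR with HRP in the fourth exofacial loop, induced by 0.5 μg/mL doxycycline for 72 h at 37 °C. Compounds alone or with 2 μM co-corrector ran 18–24 h at 33 °C, 8-point 3-fold from 20 μM. Washed-cell luminol luminescence was normalized to DMSO and positive control, fitted sigmoidally for EC50 (three plates).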

Setting [1] is: test compound without co-corrector, 18-24 hours at 33° C., read-out: EC50 (without co-corrector).
Setting [2] is: with co-corrector (2 μM of 3-[(2R,4R)-4-({[1-(2,2-difluoro-1,3-benzodioxol-5-yl)cyclopropyl]carbonyl}amino)-7-methoxy-3,4-dihydro-2H-chromen-2-yl]benzoic acid), read-out: EC50 (with co-corrector).

What is called EC50 is the concentration that produces a half-maximal response. As for `COc1ccc(C(C)(C)C)cc1CO[C@H]1[C@H](C(C)(C)C)[C@@H](C(=O)O)N(C(=O)C2CCCCC2)[C@H]1c1cccnc1OC(C)C` [Example 251, (2S,3R,4S,5S)-3-tert-butyl-4-[(5-tert-butyl-2-methoxyphenyl)methoxy]-1-(cyclohexanecarbonyl)-5-{2-[(propan-2-yl)oxy]pyridin-3-yl}pyrrolidine-2-carboxylic acid], the “Maximum % activity (with co-corrector)” value is given as “+++ (≥350)” and the “Maximum % activity (without co-corrector)” value is recorded as “+++ (≥200)”. Moreover, under setting [1], the EC50 was less than 1000 nM. For the same compound, the EC50 under setting [2] was less than 1000 nM.
In the case of `COc1nc2cc(C)cc(C)c2cc1CO[C@H]1[C@H](C(C)(C)C)[C@@H](C(=O)O)N(C(=O)C2CCCCC2)[C@H]1c1cccnc1OC(C)C` [Example 252, (2S,3R,4S,5S)-3-tert-butyl-1-(cyclohexanecarbonyl)-4-[(2-methoxy-5,7-dimethylquinolin-3-yl)methoxy]-5-{2-[(propan-2-yl)oxy]pyridin-3-yl}pyrrolidine-2-carboxylic acid], the “Maximum % activity (with co-corrector)” value is “+++ (≥350)” and the “Maximum % activity (without co-corrector)” value is recorded as “+++ (≥200)”. Besides, the EC50 under setting [1] is 1000 to 10000 nM. For the same compound, the EC50 under setting [2] is 1000 to 10000 nM.
For the compound `COc1nc2cc(C)cc(C)c2cc1CO[C@H]1[C@H](C(C)(C)C)[C@@H](C(=O)O)N(C(=O)OC(C)C)[C@H]1c1cccnc1OC(C)C` [Example 253, (2S,3R,4S,5S)-3-tert-butyl-4-[(2-methoxy-5,7-dimethylquinolin-3-yl)methoxy]-1-{[(propan-2-yl)oxy]carbonyl}-5-{2-[(propan-2-yl)oxy]pyridin-3-yl}pyrrolidine-2-carboxylic acid], the “Maximum % activity (with co-corrector)” value is “+++ (≥350)” and the “Maximum % activity (without co-corrector)” value is “+++ (≥200)”. Also, the EC50 under setting [1] is 1000 to 10000 nM. Also, under setting [2], the EC50 lay in the range of 1000 to 10000 nM.
On to `CCc1ccccc1[C@H]1[C@@H](OCc2cc3ccccc3nc2OC)[C@H](C(C)(C)C)[C@@H](C(=O)O)N1C(=O)[C@@H]1CCCCO1` [Example 254, (2S,3R,4S,5S)-3-tert-butyl-5-(2-ethylphenyl)-4-[(2-methoxyquinolin-3-yl)methoxy]-1-[(2S)-oxane-2-carbonyl]pyrrolidine-2-carboxylic acid], for which the “Maximum % activity (with co-corrector)” value is “+++ (≥350)” and the “Maximum % activity (without co-corrector)” value is on record as “+++ (≥200)”. Besides, the EC50 under setting [1] is 1000 to 10000 nM. Also, under setting [2], the EC50 is less than 1000 nM.
Consider `Cc1ccccc1[C@H]1[C@@H](OCc2nc3ccccc3n2C)[C@H](C(C)(C)C)[C@@H](C(=O)O)N1C(=O)[C@@H]1CCCCO1` [Example 255, (2S,3R,4S,5S)-3-tert-butyl-4-[(1-methyl-1H-benzimidazol-2-yl)methoxy]-5-(2-methylphenyl)-1-[(2S)-oxane-2-carbonyl]pyrrolidine-2-carboxylic acid], for which the “Maximum % activity (with co-corrector)” value is “++ (≥150 and <350)”; the “Maximum % activity (without co-corrector)” value was “+ (<100)”. Besides, the concentration for a half-maximal effect (EC50) under setting [1] is more than 10000 nM. Also, the EC50 under setting [2] lay within 1000 to 10000 nM.
Turning to `COc1ncc(C2CCC2)cc1CO[C@H]1[C@H](C(C)(C)C)[C@@H](C(=O)O)N(C(=O)C2CCCCC2)[C@H]1c1cccc2c1OC(C)(C)C2` [Example 256, (2S,3R,4S,5S)-3-tert-butyl-4-[(5-cyclobutyl-2-methoxypyridin-3-yl)methoxy]-1-(cyclohexanecarbonyl)-5-(2,2-dimethyl-2,3-dihydro-1-benzofuran-7-yl)pyrrolidine-2-carboxylic acid], the “Maximum % activity (with co-corrector)” value is listed as “+++ (≥350)” and the “Maximum % activity (without co-corrector)” value is on record as “+ (<100)”. Also, under setting [1], the concentration giving a half-maximal response (EC50) was 1000 to 10000 nM. In addition, the EC50 under setting [2] was less than 1000 nM.
As to `COc1ncc(C(F)(F)F)cc1CO[C@H]1[C@H](C(C)(C)C)[C@@H](C(=O)O)N(C(=O)C2CCCCC2)[C@H]1c1cccc2c1OC(C)(C)C2` [Example 257, (2S,3R,4S,5S)-3-tert-butyl-1-(cyclohexanecarbonyl)-5-(2,2-dimethyl-2,3-dihydro-1-benzofuran-7-yl)-4-{[2-methoxy-5-(trifluoromethyl)pyridin-3-yl]methoxy}pyrrolidine-2-carboxylic acid], the “Maximum % activity (with co-corrector)” value was “++ (≥150 and <350)”; the “Maximum % activity (without co-corrector)” value is “+ (<100)”. Under setting [1], the EC50 was less than 1000 nM. Also, the EC50 under setting [2] is less than 1000 nM.
Regarding `COc1ncc(C(F)(F)F)cc1CO[C@H]1[C@H](C(C)(C)OC)[C@@H](C(=O)O)N(C(=O)C2CCCCC2)[C@H]1c1ccccc1C(C)C` [Example 258, (2S,3R,4S,5S)-1-(cyclohexanecarbonyl)-3-(2-methoxypropan-2-yl)-4-{[2-methoxy-5-(trifluoromethyl)pyridin-3-yl]methoxy}-5-[2-(propan-2-yl)phenyl]pyrrolidine-2-carboxylic acid], the “Maximum % activity (with co-corrector)” value is “+++ (≥350)” and the “Maximum % activity (without co-corrector)” value is recorded as “+++ (≥200)”. For the same compound, under setting [1], the EC50 was less than 1000 nM. Moreover, the EC50 under setting [2] is less than 1000 nM.
As to `COc1ncc(C(F)(F)F)cc1CO[C@H]1[C@H](C(C)(C)OC)[C@@H](C(=O)O)N(C(=O)OC(C)C)[C@H]1c1ccccc1C(C)C` [Example 259, (2S,3R,4S,5S)-3-(2-methoxypropan-2-yl)-4-{[2-methoxy-5-(trifluoromethyl)pyridin-3-yl]methoxy}-1-{[(propan-2-yl)oxy]carbonyl}-5-[2-(propan-2-yl)phenyl]pyrrolidine-2-carboxylic acid], the “Maximum % activity (with co-corrector)” value is “+++ (≥350)” and the “Maximum % activity (without co-corrector)” value is recorded as “+++ (≥200)”. The EC50 under setting [1] was less than 1000 nM. The EC50 under setting [2] was less than 1000 nM.
Regarding `COc1ncc(C(F)(F)F)cc1CO[C@H]1[C@H](C(C)(C)OC)[C@@H](C(=O)O)N(C(=O)[C@@H]2CCCCO2)[C@H]1c1ccccc1C(C)C` [Example 260, (2S,3R,4S,5S)-3-(2-methoxypropan-2-yl)-4-{[2-methoxy-5-(trifluoromethyl)pyridin-3-yl]methoxy}-1-[(2S)-oxane-2-carbonyl]-5-[2-(propan-2-yl)phenyl]pyrrolidine-2-carboxylic acid], the “Maximum % activity (with co-corrector)” value was “+++ (≥350)” and the “Maximum % activity (without co-corrector)” value is “+++ (≥200)”. Also, the EC50 under setting [1] was less than 1000 nM. For the same compound, the EC50 under setting [2] was less than 1000 nM.
For the compound `COc1ccc(C(F)(F)F)cc1C(C)CO[C@H]1[C@H](C(C)(C)C)[C@@H](C(=O)O)N(C(=O)[C@@H]2CCCCO2)[C@H]1c1ccccc1C` (stereo partly drawn) [Example 261, (2S,3R,4S,5S)-3-tert-butyl-4-{2-[2-methoxy-5-(trifluoromethyl)phenyl]propoxy}-5-(2-methylphenyl)-1-[(2S)-oxane-2-carbonyl]pyrrolidine-2-carboxylic acid], the “Maximum % activity (with co-corrector)” value was “+++ (≥350)” and the “Maximum % activity (without co-corrector)” value is reported as “+++ (≥200)”. Under setting [1], the EC50 is 1000 to 10000 nM. Besides, under setting [2], the concentration giving a half-maximal response (EC50) was less than 1000 nM.
Turning to `COc1ccc(C(F)(F)F)cc1[C@](O)(CO)CO[C@H]1[C@H](C(C)(C)C)[C@@H](C(=O)O)N(C(=O)[C@@H]2CCCCO2)[C@H]1c1ccccc1C` [Example 262, (2S,3R,4S,5S)-3-tert-butyl-4-{(2S)-2,3-dihydroxy-2-[2-methoxy-5-(trifluoromethyl)phenyl]propoxy}-5-(2-methylphenyl)-1-[(2S)-oxane-2-carbonyl]pyrrolidine-2-carboxylic acid], the “Maximum % activity (with co-corrector)” value is “++ (≥150 and <350)”; the “Maximum % activity (without co-corrector)” value was “+ (<100)”. Besides, the 50% effective concentration (EC50) under setting [1] was in the range of 1000 to 10000 nM. Further, under setting [2], the EC50 is 1000 to 10000 nM.
